Test results published in patent publication US9212143B2, “Small molecule inhibitors of protein kinases” (priority 2010, dated 2015).

How the values were obtained:
Format in all cases: cell-based, human
neutrophils = assay: Zymosan phagocytosis by neutrophils (CytoSelect 96-Well Phagocytosis Assay); settings: 10 ug/ml compound, zymosan 1.5 hrs; FIG. 10
Description: Inhibition of phagocytosis was carried out using the CytoSelect™ 96-Well Phagocytosis Assay (Cell Biolabs, Inc). The phagocytic target was zymosan (Saccharomyces cerevisiae), made from yeast cell wall. For this assay, neutrophils were seeded onto fibrinogen coated wells in the presence of inhibitor. Zymosan was added, and reactions incubated for 1.5 hr. Phagocytosis was detected by permeabilizing the cells and adding a detection reagent that was quantified colorimetrically in a plate reader at 405 nm.
Neutrophils were isolated from healthy human donors using Polymorphprep (Axis Shield). Cells were equilibrated for 15 minutes at 37° C. in the presence or absence of 10 ug/ml compound, then plated into 96 well plates previously coated with 2 ng/ml fibrinogen. The subsequent phagocytosis assay was carried out using a commercial phagocytosis assay (CytoSelect™ 96-Well Phagocytosis Assay (Zymosan), Cell Biolabs.) Briefly, cells were incubated with zymosan at 37° C. for 1.5 hrs., fixed with 8% formaldehyde for 5 minutes at room temperature, blocked, permeabilized and detection reagent added which detects phagocytosed zymosan. The reaction was developed by adding a substrate and the resulting colorimetric product was detected in a plate reader. ODs were corrected for relative confluence of the cells based on a visual estimate of confluence. Results are reported as corrected ODs.

[1] = tested on: syk phosphorylation in integrin/TNF stimulated neutrophils; assay: syk phosphorylation in integrin/TNF stimulated neutrophils (in cell Western); settings: 10 ug/ml compound, TNFα 200 ng/ml, 1 hr; FIG. 11
Description: Inhibition of syk phosphorylation was tested using the FACEMaker in cell Western Blot kit from Active Motif (Carlsbad, Calif.). In this assay, freshly isolated neutrophils were plated onto fibrinogen coated wells and stimulated with TNF at 200 ng/ml. After 1 hr., cells were fixed in formaldehyde and the Western Blot performed according to the kit instructions, with the final colorimetric product read in a plate reader. Results were corrected for cell number by subsequent staining of the cells with crystal violet and recording OD at 630 nm.
Neutrophils were isolated from healthy human donors using Polymorphprep (Axis Shield). Cells were equilibrated for 15 minutes at 37° C. in the presence or absence of 10 ug/ml compound. TNFα was added to a concentration of 200 ng/ml and cells dispensed into a 96 well strip plate previously coated with 2 mg/ml fibrinogen at 1×10^6 cells/well. Reactions were incubated at 37° C. for 1 hr., and cells fixed with 4% formaldehyde for 20 minutes at room temperature. […] The reaction was developed using the kit developing solution and the resulting colorimetric product read in a plate reader at 450 nm with a 650 nm reference. […]

[2] = tested on: TNF/antineutrophil cytoplasmic antibody stimulated neutrophils; assay: Respiratory burst in TNF/antineutrophil cytoplasmic antibody stimulated neutrophils (cytochrome c reduction); settings: 10 ug/ml compound, TNFα 200 ng/ml, anti-MPO or anti-Pr3; FIGS. 5 and 6
Description: During the respiratory burst of activated neutrophils, reactive oxygen intermediates such as superoxide anion, hydroxyl radical, and hydrogen peroxide are produced. To determine the ability of compounds to affect syk dependent respiratory burst, superoxide anion production was measured in a microplate assay using the reduction of cytochrome c as a reporter assay. Respiratory burst can be induced through two different syk dependent signaling pathways, integrin mediated and Fc Receptor mediated. Compounds were tested in both pathways.
For respiratory burst assays, neutrophils (1×10^6) were added to microtiter plates that were coated with fibrinogen for integrin signaling or uncoated for Fc receptor signaling. […] At the end of the incubations, reduction of cytochrome c was quantified by measuring absorbance at 550 nm using a microplate reader. […]
(§1) Neutrophils were isolated from healthy human donors using Polymorphprep (Axis Shield). […] Reduction of cytochrome c was measured by reading absorbance at 550 nm with a 490 nm reference in a spectrophotometer. […]
as §1

## N#Cc1c(C(F)(F)F)cc(-c2ccc(Br)cc2)nc1SC(C(=O)O)c1ccccc1 (stereo not drawn) [Compound 1, α-[[6-(4-bromophenyl)-3-cyano-4-(trifluoromethyl)-2-pyridinyl]thio]-benzeneacetic acid]
neutrophils
  inhibition of zymosan phagocytosis by neutrophils: inhibition
[1]
  inhibition of syk phosphorylation in integrin/TNF stimulated neutrophils: inhibition
[2]
  respiratory burst in TNF/antineutrophil cytoplasmic antibody stimulated neutrophils: stimulation
